Experimental data: PMC4521012, “Distortion of the Major Histocompatibility Complex Class I Binding Groove to Accommodate an Insulin-derived 10-Mer Peptide” (The Journal of Biological Chemistry, 2015)

Tests used:
[1] = test system: G9C8 T-cell clone (insulin-reactive CD8+ T-cells); assay: T-cell functional assays (proliferation, MIP1β and IFNγ production); format: cell-based, NOD mouse; conditions: in all assays: [3H]thymidine proliferation, MIP1β and IFNγ ELISA; CD8+ T-cells with bone marrow-derived dendritic cells 10:1
Experimental: Splenic CD8^+ T-cells were purified using a Miltenyi MACS CD8^+ isolation kit (>90% purity) and cultured at 10:1 with bone marrow-derived dendritic cells with the LYLVCGERGF (G9GF), LYLVCGERG (G9G), or LYLVCGERV (G9V) peptide in RPMI medium supplemented with 5% FCS, 2 mM L-glutamine, 0.05 mM 2-mercaptoethanol, penicillin/streptomycin. Each sample was plated in duplicate. After 48 h of incubation, cells were pulsed with 0.5 μCi of [^3H]thymidine for 18 h, harvested, and counted to determine [^3H]thymidine incorporation.
Supernatants were removed from the proliferation assay cultures prior to the addition of [^3H]thymidine. MIP1β was measured by sandwich ELISA (R&D systems), whereas IFNγ was measured using a similar protocol (BD Biosciences) with the modification that the capture antibody was diluted in carbonate buffer and incubated at 4 °C overnight. Plates were blocked at 37 °C for 1 h, and the detection antibody was incubated for 1 h at room temperature.

[2] = test system: G9C8 T-cell clone (insulin-reactive CD8+ T-cells); assay: Staining of insulin-specific CD8 T-cells with H-2K^d·peptide tetramers; format: cell-based, NOD mouse; conditions: flow cytometry; for Tetramer+ (% of G9C8 clone stained by H-2K^d·peptide tetramer): splenocytes of G9Cα−/− NOD mice, 50 nM dasatinib preincubation, 0.5 μg tetramer, 15 min at 37 °C, gated on live CD8+ cells
G9C8 TCR = assay: Surface plasmon resonance analysis of G9C8 TCR binding to peptide-H-2K^d; design: species or system NOD mouse; conditions: SPR, 25 °C
Experimental: Binding analysis was performed using a BIAcore 3000^TM equipped with a CM5 sensor chip as described previously ([41]). Binding analysis was performed four times in independent experiments using pMHC monomers generated in house and from the National Institutes of Health tetramer facility. Approximately 200–500 RU of peptide-H-2K^d (in complex with G9GF, G9G, or G9V) was attached to the CM5 sensor chip at a slow flow rate of 10 μl/min to ensure uniform distribution on the chip surface. Combined with the small amount of peptide-H-2K^d bound to the chip surface, this reduced the likelihood of off-rate-limiting mass transfer effects. The G9C8 TCR was purified and concentrated to ∼140 μM on the same day of surface plasmon resonance analysis to reduce the likelihood of TCR aggregation affecting the results. For equilibrium analysis, eight serial dilutions were prepared in triplicate for each sample and injected over the relevant sensor chips at 25 °C. TCR was injected over the chip surface using kinetic injections at a flow rate of 45 μl/min using H-2K^d·AYAAAAAAV or HLA-A*0201·ALWGPDPAAA in different experiments as negative controls.

H-2K^d = H-2K^d (Mus musculus, UniProt P01902); assay: pMHC stability assay (thermal stability by CD spectroscopy); format: physicochemical, murine; conditions: CD spectroscopy at 218 nm, 2.5 μM protein in PBS, 4-90 °C in 0.5 °C intervals, two-state trimer-to-monomer fit
Experimental: Thermal stability of H-2K^d complexes was assessed by circular dichroism (CD) spectroscopy, monitoring the change in ellipticities at 218 nm. Data were collected on an Aviv Model 215 spectropolarimeter (Aviv Biomedical Inc., Lakewood, NJ) using a 0.1-cm quartz cell. Proteins were dissolved in PBS at concentrations of 2.5 μM. Melting curves were recorded in 0.5 °C intervals from 4 °C up to a maximum temperature of 90 °C when protein aggregation was observed. Melting curves were analyzed assuming a two-state trimer-to-monomer transition from the native (N) to unfolded (U) conformation N3 ↔ 3U with an equilibrium constant K = [U]^3/[N3] = F/(3c^2(1 − F)^3), where F and c are the degree of folding and protein concentration, respectively. Data were fitted as described ([38]). Fitted parameters were the melting temperature (Tm), van't Hoff's enthalpy (ΔHvH), and the slope and intercept of the native baseline. Because all protein complexes aggregated upon unfolding, the ellipticity of the unfolded state was set as a constant of −4,500 degrees cm^2 dmol^−1 ([39], [40]).

Chain of H-2K^d (P01902 whole entry, looked up): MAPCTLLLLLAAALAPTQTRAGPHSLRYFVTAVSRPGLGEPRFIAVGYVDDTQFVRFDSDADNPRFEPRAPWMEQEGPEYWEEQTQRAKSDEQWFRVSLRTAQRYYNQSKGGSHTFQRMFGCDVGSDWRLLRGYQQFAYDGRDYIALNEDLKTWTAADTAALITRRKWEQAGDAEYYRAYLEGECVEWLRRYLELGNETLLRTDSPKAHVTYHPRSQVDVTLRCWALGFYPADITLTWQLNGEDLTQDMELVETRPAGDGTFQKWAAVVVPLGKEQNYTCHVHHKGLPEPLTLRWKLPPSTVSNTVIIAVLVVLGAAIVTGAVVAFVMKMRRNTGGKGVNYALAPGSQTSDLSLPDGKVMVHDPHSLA

Sequence	Sensitivity of the G9C8 T-cell clone to G9G compared with G9GF [1]	Tetramer+ (% of G9C8 clone stained by H-2K^d·peptide tetramer) [2] [%]	Sensitivity of the G9C8 T-cell clone to G9V compared with G9G [1]	Mean fluorescence intensity of tetramer staining, compared with H-2K^d·G9G tetramer (in words) ([2]; different concentrations of each tetramer)	G9C8 TCR affinity for the altered ligand compared with the native ligands (higher) (G9C8 TCR) [times]	Melting temperature of the H-2K^d complex, difference to G9G and G9GF (higher) (H-2K^d)
LYLVCGERG [G9G, native insulin B chain 9-mer peptide, tested as complex or tetramer with H-2K^d]	about 5 times	85.7				
LYLVCGERV [G9V]		87.9	at least 5 times	substantially higher	> 10	over 20 °C
